The record followed here is patent publication US20250082633A1, “COMPOUNDS AND METHODS FOR MODULATING SPLICING” (REMIX THERAPEUTICS INC., priority 2021, published 2025).

One assay deals with Target C. Briefly: RT-qPCR splicing assay, gene panel, Target C canonical junction (CJ) mRNA. It counts as cell-based. To be noted: Homo sapiens, read-out: Target C CJ IC50. How it is done:
Compounds described herein were used to modulate RNA transcript abundance in cells. The expression of a target mRNA was measured by detecting the formation of an exon-exon junction in the canonical transcript (CJ). A compound mediated exon-inclusion event was detected by observing an increase in formation of a new junction with an alternative exon (AJ). Real-time qPCR assays were used to detect these splicing switches and interrogate the potency of various compounds towards different target genes. A high-throughput real time quantitative PCR (RT-qPCR) assay was developed to measure these two isoforms of the mRNA (CJ and AJ) for exemplary genes, such as HTT, SMN2, and MYB, together with a control housekeeping gene, GAPDH or GUSB or PPIA, used for normalization. Briefly, the A673 or K562 cell line was treated with various compounds described herein (e.g., compounds of Formula (I)). After treatment, the levels of the HTT, MYB, or SMN2 mRNA targets were determined from each sample of cell lysate by cDNA synthesis followed by qPCR.
The A673 cell line was cultured in DMEM with 10% FBS. Cells were diluted with full growth media and plated in a 96-well plate (15,000 cells in 100 ul media per well). The plate was incubated at 37° C. with 5% CO2 for 24 hours to allow cells to adhere. An 11-point 3-fold serial dilution of the compounds was made in DMSO then diluted in media in an intermediate plate. Compounds were transferred from the intermediate plate to the cell plate with the top dose at a final concentration of 10 uM in the well. Final DMSO concentration was kept at or below 0.25%. The cell plate was returned to the incubator at 37° C. with 5% CO2 for an additional 24 hours.
The K562 cell line was cultured in IMDM with 10% FBS. For K562, cells were diluted with full growth media and plated in either a 96-well plate (50,000 cells in 50 uL media per well) or a 384-well plate (8,000-40,000 cells in 45 uL media per well). An 11-point 3-fold serial dilution of the compounds were made in DMSO then diluted in media in an intermediate plate. Compound was transferred from the intermediate plate to the cell plate with the top dose at a final concentration of 10 uM in the well. Final DMSO concentration was kept at or below 0.25%. Final volume was 100 uL for 96-well plate and 50 uL for 384-well plate. The cell plate was then placed in an incubator at 37° C. with 5% CO2 for 24 hours.
The cells were then gently washed with 50 uL-100 uL cold PBS before proceeding to addition of lysis buffer. 30 uL-50 μL of room temperature lysis buffer with DNAse I (and optionally RNAsin) was added to each well. Cells were shaken/mixed thoroughly at room temperature for 5-10 minutes for lysis to take place and then 3 uL-5 μL of room temperature stop solution was added and wells were shaken/mixed again. After 2-5 minutes, the cell lysate plate was transferred to ice for RT-qPCR reaction setup. The lysates could also be frozen at −80° C. for later use.
In some cases, a direct lysis buffer was used. An appropriate volume of 3× lysis buffer (10 mM Tris, 150 mM NaCl, 1.5%-2.5% Igepal and 0.1-1 U/uL RNAsin, pH 7.4) was directly added to either K562 or A673 cells in media and mixed by pipetting 3 times. The plates were then incubated at room temperature with shaking/rocking for 20-50 minutes to allow for lysis to take place. After this time, the cell lysate plate was transferred to ice to set up for the RT-qPCR reactions. The lysates could also be frozen at −80° C. for later use.
To set up 10 uL RT-qPCR reactions, cell lysates were transferred to 384-well qPCR plates containing the master mix according to the table below. The plates were sealed, gently vortexed, and spun down before the run. The volumes were adjusted accordingly in some instances where the reaction was carried in 20 μL. The table below summarizes the components of the RT-qPCR reactions:
The RT-qPCR reaction was performed using a QuantStudio (ThermoFisher) under the following fast cycling conditions. […]

For assay [1], the system named is HiBiT-tagged HTT protein in K562 cells. Kind of assay: HiBit protein abundance assay, HTT. It counts as cell-based, human. To be noted: K562 HiBiT-modified cells, 24 hours, luminescence. As to the method: (§1) Compounds described herein were used to screen for effects on quantitative protein abundance using a HiBit assay system (Promega). Quantitative protein abundance was determined by measuring the protein levels of HiBit-tagged protein targets expressed in cell culture via luminescence using the Nano-Glo HiBiT Lytic Detection System, which uses a split complementation assay format to reconstitute NanoBiT enzyme to generate a luminescent signal. A protein abundance assay was developed such that endogenous protein targets could be modified with the HiBiT peptide tag and their abundance could be assessed after compound treatment. Briefly, K562 cell lines containing a HiBiT-modification were treated with various compounds described herein (e.g., compounds of Formulas (I), (II), or (III)). After treatment for 24 hours, the protein abundance of a specific target was determined by measuring luminescence. • Promega Nano-Glo HiBiT Lytic Detection System (cat #N3030) • Corning 384-well TC-treated microplates (cat #3570) • Synthego Engineered Cells Knock-In Clones [table] Cells were maintained in IMDM with 10% FBS. Before the assay, cells were diluted with phenolphthalein-free growth media (IMDM+1% FBS media) and were seeded in a 384-well plate at a density of 10000 cells/well (for each cell line listed in Table 6). Each compound was prepared as a 10-point 3-fold serial dilution in DMSO with the top dose at a final concentration of 10 μM in the well. Unmodified K562 cells were added at the previously specified density with DMSO to serve as an assay baseline and positive control (PC) and DMSO only with the respective modified cell lines was added to the negative control (NC) columns. Final DMSO concentration was kept at or below 0.25%. Treated cell plates were placed in an incubator at 37° C. with 5% CO2 for 24 hours. After 24 hours, 25 μL of Complete HiBit Lytic reagent was added to each well at room temperature (e.g. one plate requiring 10 mL Lytic Buffer, 100 μL LgBiT Protein, 200 μL Lytic Substrate), shaken for 5 minutes at 600 RPM, then left to sit for 10 minutes for signal to stabilize before reading on a Spark Cyto plate reader (Tecan) with a 500 ms measurement time. To determine compound effects on protein abundance of each target in Table 6, the percent response for each respective cell line was calculated at each compound concentration as follows: For the normalized response at each concentration, a four-parameter logistical regression was fit to the data and the response was interpolated at the 50% value to determine a concentration for protein abundance at 50% (IC50) the untreated control.

The test system of assay [2] is HiBiT-tagged MYB protein in K562 cells. Briefly: HiBit protein abundance assay, MYB. To be noted: K562 HiBiT-modified cells, 24 hours, luminescence. It counts as cell-based, human. How it is done:
as §1

Setting [3] is: decrease in CJ mRNA levels, larger panel of genes, Table 3.

pIC50: −log10 of the molar value. Like-named read-outs stand apart in the source and are kept apart here.

Regarding `Cc1cn2nc(-c3cc(F)c4nn(C5CCN(C6CCC6)CC5)cc4c3)cc(C)c2n1` [Compound 151, 6-[2-(1-cyclobutyl-4-piperidyl)-7-fluoro-indazol-5-yl]-2,8-dimethyl-imidazo [1,2-b] pyridazine], the negative logarithm of the IC50 (pIC50) (in the assay with Target C; in assay [1]; in assay [2]) was more than 7.00 in each case.
On to `Cn1cc2cc(-c3cc(F)c4nn(C5CCNCC5)nc4c3)cc(F)c2n1` [Compound 103, 4-fluoro-6-(7-fluoro-2-methyl-indazol-5-yl)-2-(4-piperidyl) benzotriazole], for which the pIC50 is 5.00 to 6.00 in the assay with Target C (setting [3]), 6.00 to 7.00 in assay [1] and 5.00 to 6.00 in assay [2].
Consider `Cc1cn2nc(-c3cc(F)c4nn(C5CCNC6(CC6)C5)cc4c3)cc(C)c2n1` (centres unmarked) [Compound 171, 6-[2-(4-azaspiro[2.5]octan-7-yl)-7-fluoro-indazol-5-yl]-2,8-dimethyl-imidazo[1,2-b]pyridazine], for which the pIC50 in the assay on Target C (setting [3]) is more than 7.00; in assay [1], more than 7.00; in assay [2], 6.00 to 7.00.
`Cc1c(O)c(-c2ccc3nn(C4CCNCC4)nc3n2)cc2cn(C)nc12` [Compound 113, 2,7-dimethyl-5-[2-(4-piperidyl)triazolo[4,5-b]pyridin-5-yl]indazol-6-ol]: the pIC50 with Target C (setting [3]) was less than 5.00; in assay [1], 5.00 to 6.00; in assay [2], 5.00 to 6.00.
In the case of `Cc1ccc2nc(-c3cc(F)c4nn(C5CCNCC5)cc4c3)ccc2n1` [Compound 157, 2-[7-fluoro-2-(4-piperidyl)indazol-5-yl]-6-methyl-1,5-naphthyridine], the negative-log IC50 (pIC50) in the assay with Target C (setting [3]) is less than 5.00; in assay [1], 5.00 to 6.00; in assay [2], 5.00 to 6.00.
For the compound `Cc1cn2nc(-c3cc(F)c4nn(C5CCN(C6CCC6)C6(CC6)C5)cc4c3)cc(C)c2n1` (centres unmarked) [Compound 186, 6-[2-(4-cyclobutyl-4-azaspiro[2.5]octan-7-yl)-7-fluoro-indazol-5-yl]-2,8-dimethyl-imidazo[1,2-b]pyridazine], the figures for the pIC50 (in the assay on Target C; in assay [1]; in assay [2]) were more than 7.00, more than 7.00 and 6.00 to 7.00, respectively.
Take `Cc1cc(-n2cc3cc(N4CCNCC4)ccc3n2)cc2cn(C)nc12` [Compound 121, 2,7-dimethyl-5-(5-piperazin-1-ylindazol-2-yl)indazole]: the pIC50 (in the assay with Target C (setting [3]); in assay [1]; in assay [2]) was less than 5.00 each time.
Regarding `Cc1cn2nc(-c3cc(F)c4nn(C5CCNC6(CCC6)C5)cc4c3)cc(C)c2n1` (centres unmarked) [Compound 189, 6-[2-(5-azaspiro[3.5]nonan-8-yl)-7-fluoro-indazol-5-yl]-2,8-dimethyl-imidazo[1,2-b]pyridazine], the pIC50 in the assay on Target C (setting [3]) was 6.00 to 7.00; in assay [1] it was more than 7.00; in assay [2], 6.00 to 7.00.
`Cc1cn2nc(-c3cc(F)c4nn(C5CCN(CCO)C6(CC6)C5)cc4c3)cc(C)c2n1` (centres unmarked) [Compound 180, 2-[7-[5-(2,8-dimethylimidazo[1,2-b]pyridazin-6-yl)-7-fluoro-indazol-2-yl]-4-azaspiro[2.5]octan-4-yl]ethanol]: the negative logarithm of the IC50 (pIC50) with Target C is 6.00 to 7.00; in assay [1], more than 7.00; in assay [2], 6.00 to 7.00.
`Cc1cn2nc(-c3ccc4nn(C5CCNCC5)cc4n3)cc(C)c2n1` [Compound 138, 2,8-dimethyl-6-[2-(4-piperidyl)pyrazolo[4,3-b]pyridin-5-yl]imidazo[1,2-b]pyridazine]: the pIC50 (in the assay on Target C (setting [3]); in assay [1]; in assay [2]) was 6.00 to 7.00 throughout.
Turning to `Cc1cn2nc(-c3cc4cn(C5CCNCC5)nc4cn3)cc(C)c2n1` [Compound 147, 2,8-dimethyl-6-[2-(4-piperidyl)pyrazolo[3,4-c]pyridin-5-yl]imidazo[1,2-b]pyridazine], the pIC50 (in the assay with Target C (setting [3]); in assay [1]; in assay [2]) was 6.00 to 7.00 each time.
With `Cc1cn2nc(-n3cc4cc(C5CCNCC5)cc(F)c4n3)cc(C)c2n1` [Compound 120, 6-[7-fluoro-5-(4-piperidyl)indazol-2-yl]-2,8-dimethyl-imidazo[1,2-b]pyridazine], the negative-log IC50 (pIC50) in the assay on Target C (setting [3]) was less than 5.00; in assay [1] it was 5.00 to 6.00; in assay [2], 5.00 to 6.00.
As for `Fc1cc(-c2ccc3cnccc3c2)cc2cn(C3CCNCC3)nc12` [Compound 161, 6-[7-fluoro-2-(4-piperidyl)indazol-5-yl]isoquinoline], the pIC50 in the assay with Target C (setting [3]) is 5.00 to 6.00; in assay [1], 6.00 to 7.00; in assay [2], 5.00 to 6.00.
On to `Cc1cn2nc(-c3cc4cn(C5CCNCC5)nc4cc3O)cc(C)c2n1` [Compound 154, 5-(2,8-dimethylimidazo[1,2-b]pyridazin-6-yl)-2-(piperidin-4-yl)-2H-indazol-6-ol], for which the figures for the negative logarithm of the IC50 (pIC50) (in the assay with Target C (setting [3]); in assay [1]; in assay [2]) were 6.00 to 7.00, more than 7.00 and 6.00 to 7.00, respectively.
`Cc1cn2cc(-c3cc(F)c4nn(C5CCNCC5)cc4c3)cc(C)c2n1` [Compound 125, 5-(2,8-dimethylimidazo[1,2-a]pyridin-6-yl)-7-fluoro-2-(4-piperidyl)indazole]: the negative-log IC50 (pIC50) in the assay with Target C (setting [3]) was 6.00 to 7.00; in assay [1], more than 7.00; in assay [2], 6.00 to 7.00.
As for `Cc1cc(-c2cc(F)c3nn(C4CCNCC4)cc3c2)cc2cn(C)nc12` [Compound 133, 5-(2,7-dimethylindazol-5-yl)-7-fluoro-2-(4-piperidyl)indazole], the negative logarithm of the IC50 (pIC50) with Target C (setting [3]) is 6.00 to 7.00; in assay [1] it was more than 7.00; in assay [2], 6.00 to 7.00.
As for `Cc1cn2nc(-c3cc(F)c4nn(CC5CCNCC5)cc4c3)cc(C)c2n1` [Compound 212, 6-[7-fluoro-2-(4-piperidylmethyl)indazol-5-yl]-2,8-dimethyl-imidazo[1,2-b]pyridazine], the negative logarithm of the IC50 (pIC50) (in the assay with Target C (setting [3]); in assay [2]) was 6.00 to 7.00 throughout.
